From article PMC6286156 (Cell Calcium, 2018)
Structures can show the parent of a compound that is named as a salt.

Legend:
[1] = test system: NAADP-evoked Ca^2+ signals; conditions: cited from earlier work
[2] = test system: lysosomal Ca^2+ content, U2OS cells; assay: Counterscreen: GPN-evoked lysosomal Ca2+ release; type: cell-based, human; conditions: for activity at 30 µM: Homo sapiens, read-out: Counterscreen (human cells) Ca^2+ release (% GPN); for Counterscreen (human cells) Ca^2+ release (% GPN) / Effect on GPN-mobilizable Ca2+ and LysoTracker (LTR) staining (in words): drug 30 μM; for Counterscreen (human cells) Ca^2+ release (% GPN): GPN 300 μM, peak fluo-4 F/F0
[3] = test system: lysosomal labelling (LysoTracker Red), U2OS cells; assay: Counterscreen: LysoTracker Red; type: cell-based, human; conditions: for activity at 30 µM: Homo sapiens, read-out: Counterscreen (human cells) LTR signal (% control); for Counterscreen (human cells) LTR signal (% control): drug 30 μM, minimum LTR F/F0 before GPN
[4] = test system: NAADP-evoked Ca^2+ release; assay: Primary screen of NAADP-evoked Ca2+ release in sea urchin egg homogenate; type: biochemical, Strongylocentrotus purpuratus; conditions: for 1° Screen (sea urchin) Ca^2+ release (% NAADP): peak NAADP-evoked Ca2+ release as % of control NAADP response: compound 25 μM, 6 min preincubation, NAADP 167 nM; for Effect on NAADP-evoked Ca2+ signal in primary screen (in words): 25 μM
[5] = test system: NAADP-evoked Ca^2+ release; type: biochemical, Strongylocentrotus purpuratus; conditions: for 2° Screen (sea urchin) Ca^2+ release log(IC50): printed as log(IC50), negative values, molar implied, NAADP 70 nM; for IC50: read-out: IC50 for inhibition of NAADP-evoked Ca2+ release
[6] = test system: specific ^32P-NAADP binding in sea urchin egg homogenates; assay: 32P-NAADP radioligand binding in sea urchin egg homogenate; parameters: species or system Strongylocentrotus purpuratus; conditions: drug 30 μM, specific 32P-NAADP binding relative to vehicle
[7] = test system: IP3-evoked Ca^2+ release; type: biochemical, Strongylocentrotus purpuratus
[8] = test system: cADPR-evoked Ca^2+ release; type: biochemical, Strongylocentrotus purpuratus
[9] = test system: Ebola; conditions: mouse, in vivo; cited from earlier work

Row | Molecule | activity at 30 µM [2] [%] | activity at 30 µM [3] [%] | 1° Screen (sea urchin) Ca^2+ release (% NAADP): peak NAADP-evoked Ca2+ release as % of control NAADP response [4] [%] | 2° Screen (sea urchin) Ca^2+ release log(IC50) [5] | 2° Screen (sea urchin) NAADP binding (% inhibition) [6] [%] | also measured
1 | COc1ccc([C@@H]2Sc3ccccc3N(CCN(C)C)C(=O)[C@@H]2OC(C)=O)cc1 [diltiazem] |  |  |  |  |  | Concentration acting as TPC pore blocker [1]: < 10 u M
2 | CN1CCN(CCCN2c3ccccc3Sc3ccc(Cl)cc32)CC1 [Prochlorperazine dimaleate, prochlorperazine dimaleate salt] | 20.2 ± 17 | 24.3 ± 14 |  |  |  | 
3 | CCN(CC)CCCCCCCCOC(=O)c1cc(OC)c(OC)c(OC)c1.Cl [TMB-8 hydrochloride] |  |  | 18.3 ± 3.2 | −5.12 ± 0.06 | −16.6 ± 10.3 | Counterscreen (human cells) Ca^2+ release (% GPN) [2]: 68.8 ± 5%; Counterscreen (human cells) LTR signal (% control) [3]: 71.8 ± 8%
4 | COc1ccc2cc1Oc1ccc(cc1)C[C@H]1c3cc(c(OC)cc3CCN1C)Oc1c(O)c(OC)cc3c1[C@H](C2)N(C)CC3 [Fangchinoline] |  |  |  |  |  | Peak amplitude of NAADP-evoked Ca2+ release, % of control response [5]: 47 ± 2%; Effect on size of IP3-evoked Ca2+ transients (in words) [7]: lesser effects; Effect on size of cADPR-evoked Ca2+ transients (in words) [8]: lesser effects
5 | COc1ccc([C@H]2N[C@H](C(=O)O)Cc3c2[nH]c2ccccc32)cc1CN1CCN(c2ccccc2F)CC1 (relative stereo) [trans-ned-19, trans-Ned-19] |  |  |  |  |  | IC50 [5]: 156 ± 3 µM
6 | Cc1nc(N=Nc2ccc(S(=O)(=O)[O-])cc2S(=O)(=O)[O-])c(COP(=O)([O-])[O-])c(C=O)c1O.[Na+].[Na+].[Na+].[Na+] [PPADS, PPADS tetrasodium salt] |  |  |  | −5.27 ± 0.01 | 84.8 ± 1.6 | IC50 [5]: 5.4 ± 0.2 µM; Counterscreen (human cells) Ca^2+ release (% GPN) [2]: 91.3 ± 16%; Counterscreen (human cells) LTR signal (% control) [3]: 92.1 ± 7%
7 | OCCN1CCN(CCCN2c3ccccc3Sc3ccc(C(F)(F)F)cc32)CC1 [Fluphenazine dihydrochloride, fluphenazine dihydrochloride] | 67.6 ± 14 | 69.8 ± 10 |  |  |  | 
8 | COC(=O)C1=C(C)NC(C)=C(C(=O)OC)C1c1ccccc1[N+](=O)[O-] [nifedipine] |  |  |  |  |  | Concentration acting as TPC pore blocker [1]: < 10 u M
9 | CCS(=O)(=O)Nc1cccc(C(=C2CCCCC2)c2cnc[nH]2)c1 [A-315456] |  |  | 13.0 ± 5.0 | −4.44 ± 0.01 | 8.4 ± 1.2 | Effect on GPN-mobilizable Ca2+ and LysoTracker (LTR) staining (in words) [2]: no effect; Counterscreen (human cells) Ca^2+ release (% GPN) [2]: 97.1 ± 3%; Counterscreen (human cells) LTR signal (% control) [3]: 95.2 ± 4%
10 | Cl.Fc1ccc(C(OCCCc2c[nH]cn2)c2ccc(F)cc2)cc1 [IPFME, 3-(1H-Imidazol-4-yl)propyl di(p-fluorophenyl)methyl ether hydrochloride] | 51.3 ± 18 | 56.9 ± 8 | 13.7 ± 11 | −5.22 ± 0.08 | 2.9 ± 2.1 | 
11 | CC(=O)SCC(Cc1ccccc1)C(=O)NCC(=O)OCc1ccccc1 (stereo not drawn) [Racecadotril, racecadotril] | 110 ± 4 | 92.8 ± 3 | 11.5 ± 6.0 | −5.80 ± 0.03 | −8.3 ± 0.2 | IC50 [5]: 1.6 ± 0.1 µM; Effect on GPN-mobilizable Ca2+ and LysoTracker (LTR) staining (in words) [2]: no effect
12 | CCCCCCCCCC(=O)NC(CN1CCOCC1)C(O)c1ccccc1.Cl (stereo not drawn) [PDMP, PDMP hydrochloride] |  |  | 18.3 ± 17 | −4.80 ± 0.05 | 6.0 ± 0.5 | Effect on GPN-mobilizable Ca2+ and LysoTracker (LTR) staining (in words) [2]: no effect; Counterscreen (human cells) Ca^2+ release (% GPN) [2]: 91.4 ± 2%; Counterscreen (human cells) LTR signal (% control) [3]: 91.6 ± 13%
13 | CSc1ccc2c(c1)N(CCC1CCCCN1C)c1ccccc1S2 (stereo not drawn) [Thioridazine hydrochloride, thioridazine hydrochloride] | 20.5 ± 12 | 26.2 ± 18 |  |  |  | 
14 | COc1cc(C(=O)OCCCN2CCCN(CCCOC(=O)c3cc(OC)c(OC)c(OC)c3)CC2)cc(OC)c1OC [Dilazep hydrochloride, dilazep hydrochloride] | 65.1 ± 5 | 69.6 ± 9 | 16.0 ± 3.0 | −5.03 ± 0.11 | −10.9 ± 8.1 | 
15 | CN1CCN(CCCN2c3ccccc3Sc3ccc(C(F)(F)F)cc32)CC1 [Trifluoperazine dihydrochloride, trifluoperazine dihydrochloride] | 5.8 ± 11 | 15.2 ± 9 | 19.7 ± 15 | −5.13 ± 0.10 | −13.7 ± 13.7 | 
16 | C/C=C(/C)C(=O)O[C@H]1C(C)=C2[C@H]([C@@H]1OC(=O)CCCCCCC)[C@@](C)(OC(C)=O)C[C@H](OC(=O)CCC)[C@@]1(O)[C@H]2OC(=O)[C@@]1(C)O [thapsigargin] |  |  |  |  |  | Effect on NAADP-evoked Ca2+ signal in primary screen (in words) [4]: did not abrogate NAADP responsiveness
17 | ST-148 |  |  | 16.7 ± 3.5 | −4.80 ± 0.08 | 0.2 ± 4.3 | Counterscreen (human cells) Ca^2+ release (% GPN) [2]: 66.6 ± 5%; Counterscreen (human cells) LTR signal (% control) [3]: 69.8 ± 13%
18 | CN1CCC[C@@H]1CCO[C@](C)(c1ccccc1)c1ccc(Cl)cc1 [Clemastine fumarate, clemastine fumarate] | 69.5 ± 13 | 70.9 ± 15 |  |  |  | 
19 | CCN(CC)CC#CCOC(=O)C(O)(c1ccccc1)C1CCCCC1 (stereo not drawn) [Oxybutynin Chloride, oxybutynin chloride] | 62.1 ± 4 | 59.2 ± 9 |  |  |  | 
20 | O=C1C[C@@H](c2ccc(O)cc2)Oc2cc(O)cc(O)c21 [naringenin] |  |  |  |  |  | IC50 [1]: ~180 µM
21 | COc1ccc(CCCOC(Cn2ccnc2)c2ccc(OC)cc2)cc1 (stereo not drawn) [SKF 96,365, SKF 96365 hydrochloride] | 98.1 ± 6 | 98.5 ± 5 | 6.3 ± 4.5 | −5.29 ± 0.06 | −5.3 ± 5.7 | Effect on GPN-mobilizable Ca2+ and LysoTracker (LTR) staining (in words) [2]: no effect
22 | Cl.Cl.c1ccc(CCCN2CCN(CCOC(c3ccccc3)c3ccccc3)CC2)cc1 [GBR-12935 dihydrochloride] |  |  | 10.7 ± 7.0 | −4.90 ± 0.13 | 3.4 ± 3.3 | Counterscreen (human cells) Ca^2+ release (% GPN) [2]: 61.1 ± 15%; Counterscreen (human cells) LTR signal (% control) [3]: 67.5 ± 11%
23 | COc1ccc2cc1Oc1ccc(cc1)C[C@H]1c3cc(c(OC)cc3CCN1C)Oc1c(OC)c(OC)cc3c1[C@H](C2)N(C)CC3 [tetrandrine] |  |  |  |  |  | Concentration range acting as TPC pore blocker (in words) [1]: sub-micromolar range; Survival [9]: improved survival
24 | Cc1nc(N=Nc2cc(S(=O)(=O)O)c3cc([N+](=O)[O-])cc(S(=O)(=O)O)c3c2)c(COP(=O)(O)O)c(C=O)c1O [PPNDS] |  |  | 22 ± 4 |  |  | 
25 | O=C1NC(=O)C(c2ccccc2)(c2ccccc2)N1 [phenytoin] |  |  |  |  |  | Effect on NAADP-evoked Ca2+ signal in primary screen (in words) [4]: potentiation
26 | CC1(C)C(=O)N(CCN2CCC(C(=O)c3ccc(F)cc3)CC2)c2ccccc21.Cl [LY-310,762 hydrochloride] |  |  | 16.3 ± 8.7 | −4.75 ± 0.05 | −2.8 ± 3.8 | Counterscreen (human cells) Ca^2+ release (% GPN) [2]: 108.1 ± 11%; Counterscreen (human cells) LTR signal (% control) [3]: 90.2 ± 8%
27 | OCc1cc(C(O)CNCCCCCCOCCCCc2ccccc2)ccc1O (stereo not drawn) [Salmeterol xinafolate, salmeterol xinafoate] | 97.4 ± 5 | 97.3 ± 7 | 18.7 ± 12 | −4.94 ± 0.04 | −2.3 ± 13.6 | 
28 | CO/C1=C\C(C)=C\[C@@H](C)[C@@H](O)[C@@H](C)C/C(C)=C/C=C/[C@H](OC)[C@@H]([C@@H](C)[C@@H](O)[C@H](C)[C@@]2(O)C[C@@H](O)[C@H](C)[C@@H](C(C)C)O2)OC1=O [bafilomycin, bafilomycin A1] |  |  |  |  |  | Effect on GPN-mobilizable Ca2+ and LysoTracker (LTR) staining (in words) [2]: penetrant effects
